We go through 25 molecules from PMC12304826, “Redirecting the Peptide Cleavage Causes Protease Inactivation” (Angewandte Chemie (International Ed. in English), 2025).

The test deals with T1, human cathepsin B (Homo sapiens, UniProt P07858).
T1 construct: purchased Calbiochem, Darmstadt, Germany
Kind of test: Cathepsin B inhibition assay (chromogenic substrate Cbz-Arg-Arg-pNA). To be noted: for remaining activity at 20 µM: 20 µM inhibitor, duplicate measurements, product formation after 60 min, read-out: r.a. (%), residual enzymatic activity of cathepsin B; for kinact/KI: 1 h; for kinac: calculated from kinac/Ki values and separately obtained Ki values. The class given is biochemical. On the procedure: To get a first insight into the interaction with human cathepsin B, the inhibition of the enzyme‐catalyzed cleavage of a chromogenic peptide substrate was examined. […] Active compounds were subjected to kinetic measurements at five different concentrations (Tables 1 and S1).
Figure 1 Cathepsin B‐catalyzed hydrolysis of 500 µM (= 0.45 K m) of Cbz‐Arg‐Arg‐p‐nitroanilide in the absence (black) or presence of increasing concentrations of carbamate 4 (from top to bottom: 0.4, 0.8, 1.2, 1.6, and 2.0 µM).
1. Enzyme Inhibition Assays and Kinetic Data of Inhibition of Cathepsins B, L, K and S General. Human cathepsins were assayed either fluorimetrically or spectrophotometrically as noted below. The 10 mM inhibitor solutions were prepared in DMSO. The final concentration of DMSO in all assays was 2%. Non-linear regressions were conducted with GraFit 5. Residual cathepsin activity at an inhibitor concentration of 20 µM was determined from duplicate measurements based on the product formation after 60 min. Concentration dependent measurements were performed in duplicate measurements with five different inhibitor concentrations when the residual cathepsin activity in the presence of 20 µM inhibitor was below 70% (cathepsin B) or below 50% (cathepsins cathepsins L, K, and S). Progress curves were monitored for 60 min. First-order rate constants, kobs, were determined by non-linear regression following the equation [P] = vi × (1 – exp(-kobs × t))/kobs + d, where [P] is the product concentration, vi is the initial product formation rate, kobs is the observed first-order rate constant, and d is the offset. Mean values of kobs were plotted versus corresponding inhibitor concentrations [I], and second-order rate constants of inactivation, kinac/Ki, were obtained by linear regression. The equation kobs/[I] = (kinac/Ki)/(1 + [S]/Km) was used, where [S] is the substrate concentration and Km is the Michaelis-Menten constant. Standard errors (SE) refer to the linear regression.
Cathepsin B inhibition assay.[1] Human isolated cathepsin B (Calbiochem, Darmstadt, Germany) was assayed spectrophotometrically on a Cary 50 or 100 Bio, Varian, at 405 nm. The reactions were followed at 37 °C. Assay buffer was 100 mM sodium phosphate buffer pH 6.0, 100 mM NaCl, 5 mM EDTA, 0.01% Brij 35. A stock solution of human cathepsin B of 1.81 mg/mL or 0.47 mg/mL in 20 mM sodium acetate buffer pH 5.0, 1 mM ethylenediaminetetraactic acid (EDTA) was diluted 1:500 with assay buffer containing 5 mM dithiothreitol (DTT) and incubated for 30 min at 37 °C. A 100 mM stock solution of the para-nitroaniline (pNA)-based chromogenic substrate Cbz-Arg-Arg-pNA was prepared in DMSO.
The final concentration of the substrate was 500 μM (= 0.45 Km). Into a cuvette containing 960 μL assay buffer, inhibitor solution and DMSO in a total volume of 15 μL, and 5 μL of the substrate solution were added and mixed. The reaction was initiated by adding 20 μL of the enzyme solution. […]

Where [1] appears, read: pH 6, five inhibitor concentrations, duplicates, 60 min progress curves, 500 µM Cbz-Arg-Arg-pNA, pH 6.0, 37 °C, read-out: k inac/K i ± SE, second-order rate constant of enzyme inactivation, cathepsin B.

Read-outs that look alike come from different tables or passages of the source.

As for `CC(C)CC(NC(=O)Oc1ccccc1)C(=O)NC(Cc1ccccc1)C(=O)O` (centres unmarked) [Compound 1], the remaining activity at 20 µM is 23%. The kinact/KI under setting [1] turned out to be 157 ± 13 M⁻¹ s⁻¹.
Turning to `CC(C)C[C@H](NC(=O)Oc1ccc(Cl)cc1)C(=O)N[C@@H](Cc1ccccc1)C(=O)OC(C)(C)C` [Compound 2], the remaining activity at 20 µM is 92%.
On the same count and under the same terms, the result for `COC(=O)C(Cc1ccccc1)NC(=O)C(CC(C)C)NC(=O)Oc1ccc(Cl)cc1` (centres unmarked) [Compound 3] reads 97%.
On to `CC(C)C[C@H](NC(=O)Oc1ccc(Cl)cc1)C(=O)N[C@@H](Cc1ccccc1)C(=O)O` [Compound 4], for which the remaining activity at 20 µM was no more than 2%. Further, the kinact/KI under setting [1] worked out at 745 ± 5 M⁻¹ s⁻¹.
Regarding `CC(C)CC(CNC(=O)Oc1ccc(Cl)cc1)C(=O)N[C@H](Cc1ccccc1)C(=O)O` (some centres unmarked) [Compound 5], the remaining activity at 20 µM was 11%. In addition, under setting [1], the kinact/KI came out at 108 ± 5 M⁻¹ s⁻¹.
`O=C(NC(CC1CCCCC1)C(=O)NC(Cc1ccccc1)C(=O)O)Oc1ccc(Cl)cc1` (centres unmarked) [Compound 7]: the remaining activity at 20 µM was no more than 2% and the kinac was 0.0200 s⁻¹. Under setting [1], the kinact/KI is 2010 ± 110 M⁻¹ s⁻¹. Moreover, for the setting “non-linear regression of initial rates vi versus inhibitor concentration, read-out: Ki ± SE”, the Ki is 9.96 µM.
For the molecule `CC(C)C[C@H](NC(=O)Oc1ccc(Cl)cc1)C(=O)N1CCC[C@H]1C(=O)O` [Compound 8], the remaining activity at 20 µM stood at 4%. The kinact/KI under setting [1] is 711 ± 40 M⁻¹ s⁻¹.
`CC(C)CC(CNC(=O)Oc1ccc(Cl)cc1)C(=O)N1CCC[C@@H]1C(=O)O` (some centres unmarked) [Compound 9]: the remaining activity at 20 µM turned out to be 53%. Moreover, the kinact/KI under setting [1] was found to be 30.3 ± 4.1 M⁻¹ s⁻¹.
As to `CC(C)C[C@H](NC(=O)Oc1ccc(Cl)cc1)C(=O)N1CCCC[C@H]1C(=O)O` [Compound 10], the remaining activity at 20 µM is 5%. Further, the kinact/KI under setting [1] is 933 ± 40 M⁻¹ s⁻¹.
Regarding `CC(C)CC(OC(=O)Nc1ccc(Cl)cc1)C(=O)N[C@@H](Cc1ccccc1)C(=O)O` (some centres unmarked) [Compound 16], the remaining activity at 20 µM came out at 91%.
Regarding `CC(C)CC(OC(=O)Nc1ccc(Cl)cc1)C(=O)N1CCC[C@H]1C(=O)O` (some centres unmarked) [Compound 17], the remaining activity at 20 µM is 68%. Moreover, under “five inhibitor concentrations, duplicates, 60 min progress curves, 500 µM Cbz-Arg-Arg-pNA, pH 6.0, 37 °C, read-out: k inac/K i ± SE, second-order rate constant of enzyme inactivation, cathepsin B”, the kinact/KI is 10.6 ± 1.6 M⁻¹ s⁻¹.
As for `CC(C)C[C@H](NC(=O)Nc1ccc(Cl)cc1)C(=O)N[C@@H](Cc1ccccc1)C(=O)O` [Compound 18], the remaining activity at 20 µM stood at 90%.
Same read-out and setting: then `CC(C)C[C@H](NC(=O)Nc1ccc(Cl)cc1)C(=O)N1CCC[C@H]1C(=O)O` [Compound 19], with 95%.
For the molecule `CC(C)C[C@H](NC(=O)Oc1ccc(Cl)c(NC(=O)Cc2ccccc2)c1)C(=O)N1CCC[C@H]1C(=O)O` [Compound 20], the remaining activity at 20 µM was no more than 2%. The kinact/KI under setting [1] worked out at 2860 ± 50 M⁻¹ s⁻¹.
With `CC(C)C[C@H](NC(=O)Oc1ccc(-c2ccccc2)c(NC(=O)Cc2ccccc2)c1)C(=O)N1CCC[C@H]1C(=O)O` [Compound 21], the remaining activity at 20 µM is no more than 2%. The kinact/KI under setting [1] was 1340 ± 20 M⁻¹ s⁻¹.
In the same order, the values of `CC(C)CC(NC(=O)Oc1ccc(Cl)c(NC(=O)C(c2ccccc2)c2ccccc2)c1)C(=O)N1CCCC1C(=O)O` (centres unmarked) [Compound 22] are no more than 2% and 3830 ± 70 M⁻¹ s⁻¹.
In the same order, the values of `CC(C)C[C@H](NC(=O)Oc1cccc(Cl)c1)C(=O)N1CCC[C@H]1C(=O)O` [Compound 23] are no more than 2% and 2760 ± 50 M⁻¹ s⁻¹.
In the same order, the values of `CC(C)C[C@H](NC(=O)Oc1ccc(NC(=O)Cc2ccccc2)c(Cl)c1)C(=O)N1CCC[C@H]1C(=O)O` [Compound 24] are no more than 2% and 6530 ± 310 M⁻¹ s⁻¹.
In the case of `CC(C)CC(NC(=O)Oc1ccc(NC(=O)c2ccc(-c3ccccc3)cc2)c(Cl)c1)C(=O)N1CCCC1C(=O)O` (centres unmarked) [Compound 25], the remaining activity at 20 µM is no more than 2%. Under setting [1], the kinact/KI came out at 3640 ± 60 M⁻¹ s⁻¹.
`CC(C)C[C@H](NC(=O)Oc1ccc(NC(=O)N(Cc2ccccc2)Cc2ccccc2)c(Br)c1)C(=O)N1CCC[C@H]1C(=O)O` [Compound 26]: the kinact/KI (pH 6, read-out: k inac/K i ± SE, second-order rate constant of enzyme inactivation, cathepsin B) came to 2660 ± 80 M⁻¹ s⁻¹.
For the molecule `CC(C)CC(NC(=O)Oc1ccc(NC(=O)C(c2ccccc2)c2ccccc2)c(Br)c1)C(=O)N1CCCC1C(=O)O` (centres unmarked) [Compound 27], the remaining activity at 20 µM was no more than 2%. Also, the kinact/KI under setting [1] came to 6000 ± 100 M⁻¹ s⁻¹.
In the case of `CC(C)CC(NC(=O)Oc1ccc(NC(=O)C(c2ccccc2)c2ccccc2)c(Cl)c1)C(=O)N1CCCC1C(=O)O` (centres unmarked) [Compound 28], the remaining activity at 20 µM was no more than 2%. For the same molecule, under setting [1], the kinact/KI came to 8180 ± 290 M⁻¹ s⁻¹.
As for `CC(C)CC(NC(=O)Oc1ccc(NC(=O)C(c2ccccc2)c2ccccc2)c(Cl)c1)C(=O)NC(Cc1ccccc1)C(=O)O` (centres unmarked) [Compound 29], the remaining activity at 20 µM was no more than 2%. In addition, under setting [1], the kinact/KI was 11300 ± 600 M⁻¹ s⁻¹.
Consider `O=C(NC(CC1CCCCC1)C(=O)NC(Cc1ccccc1)C(=O)O)Oc1ccc(NC(=O)C(c2ccccc2)c2ccccc2)c(Cl)c1` (centres unmarked) [Compound 30], for which the remaining activity at 20 µM was no more than 2%. Also, the kinact/KI under setting [1] was greater than 10000 M⁻¹ s⁻¹. For the same molecule, the “k inac/K i ± SE, second-order rate constant of enzyme inactivation, cathepsin B” value (five inhibitor concentrations, duplicates, 60 min progress curves, 500 µM Cbz-Arg-Arg-pNA, pH 6.0, 37 °C) was 13,800 M^−1s^−1.
For the molecule `O=C(NC(CC1CCCCC1)C(=O)NC(Cc1ccccc1)C(=O)O)Oc1ccc(NC(=O)C(Cc2ccccc2)Cc2ccccc2)c(Cl)c1` (centres unmarked) [Compound 31], the remaining activity at 20 µM is no more than 2% and the kinac was 0.0104 s⁻¹. In addition, the “fold lower K i value in comparison with 7” value (31 versus 7) is listed as “more than 20 fold”. Also, under setting [1], the kinact/KI is 23600 ± 1900 M⁻¹ s⁻¹. Further, for the setting “non-covalent enzyme-inhibitor complex, read-out: K i value”, the Ki came to 0.441 µM.
